Measurements reported in the NIST ThermoML archive (doi:10.1016/j.jct.2016.09.026).

How the values were obtained:
[1] = molar heat capacity at constant pressure; conditions: 101.33 kPa, Small sample (50 mg) DSC
[2] = Crystal
[3] = Molar enthalpy of transition or fusion; conditions: Crystal; DSC
[4] = molar enthalpy of vaporization or sublimation; conditions: 341.73 K; Liquid; Static calorimetry

CCCCC(=O)c1ccc(O)cc1 [1-(4-hydroxyphenyl)-1-pentanone]
[1]
Conditions | molar heat capacity at constant pressure [J/K/mol]
288.67 K, Crystal | 235
288.92 K, Crystal | 235.9
289.17 K, Crystal | 235.2
289.42 K, Crystal | 236.4
289.67 K, Crystal | 236
289.92 K, Crystal | 235.3
290.17 K, Crystal | 236.5
290.42 K, Crystal | 236.3
290.68 K, Crystal | 238
290.93 K, Crystal | 236.4
291.18 K, Crystal | 236.8
291.43 K, Crystal | 238
291.68 K, Crystal | 237.8
291.93 K, Crystal | 236.7
292.18 K, Crystal | 237.4
292.43 K, Crystal | 238.5
292.68 K, Crystal | 239
292.93 K, Crystal | 239.6
293.18 K, Crystal | 239.6
293.43 K, Crystal | 240
293.68 K, Crystal | 240.4
293.93 K, Crystal | 239.8
294.18 K, Crystal | 239.1
294.44 K, Crystal | 239.1
294.69 K, Crystal | 240.8
294.94 K, Crystal | 240.4
295.19 K, Crystal | 239.8
295.44 K, Crystal | 240.5
295.69 K, Crystal | 241.6
295.94 K, Crystal | 241.1
296.19 K, Crystal | 240.8
296.44 K, Crystal | 242.1
296.69 K, Crystal | 241.7
296.94 K, Crystal | 241.2
297.19 K, Crystal | 241.5
297.44 K, Crystal | 242.2
297.69 K, Crystal | 241.6
297.94 K, Crystal | 242.5
298.19 K, Crystal | 242.7
298.44 K, Crystal | 242.8
298.69 K, Crystal | 241.8
298.94 K, Crystal | 242.3
299.19 K, Crystal | 242.3
299.44 K, Crystal | 242.2
299.69 K, Crystal | 242.9
299.94 K, Crystal | 244.1
300.19 K, Crystal | 244.9
300.44 K, Crystal | 244.3
300.69 K, Crystal | 244.4
300.94 K, Crystal | 244.7
301.19 K, Crystal | 244.5
301.44 K, Crystal | 243.4
301.69 K, Crystal | 244.2
301.94 K, Crystal | 244.9
302.19 K, Crystal | 245.3
302.44 K, Crystal | 245.1
302.69 K, Crystal | 244.8
302.94 K, Crystal | 245.6
303.19 K, Crystal | 246.4
303.44 K, Crystal | 246.5
303.69 K, Crystal | 247
303.94 K, Crystal | 247.4
304.19 K, Crystal | 247.3
304.44 K, Crystal | 247.5
304.69 K, Crystal | 246.8
304.94 K, Crystal | 246.8
305.19 K, Crystal | 247.1
305.44 K, Crystal | 248.1
305.69 K, Crystal | 247.8
305.94 K, Crystal | 247.5
306.19 K, Crystal | 247.7
306.44 K, Crystal | 248.9
306.69 K, Crystal | 248.8
306.94 K, Crystal | 249.6
307.19 K, Crystal | 250.4
307.44 K, Crystal | 250.1
307.69 K, Crystal | 250.1
307.94 K, Crystal | 249.4
308.19 K, Crystal | 249.7
308.44 K, Crystal | 250.1
308.69 K, Crystal | 249.7
308.94 K, Crystal | 250.3
309.19 K, Crystal | 250.8
309.44 K, Crystal | 251.7
309.69 K, Crystal | 252.9
309.94 K, Crystal | 251.9
310.19 K, Crystal | 253.2
310.44 K, Crystal | 253.8
310.69 K, Crystal | 253.1
310.94 K, Crystal | 253.2
311.19 K, Crystal | 252.6
311.44 K, Crystal | 252.4
311.69 K, Crystal | 253.1
311.94 K, Crystal | 252.2
312.19 K, Crystal | 252.8
312.44 K, Crystal | 252.4
312.69 K, Crystal | 253.6
312.94 K, Crystal | 254
313.19 K, Crystal | 253.3
313.44 K, Crystal | 254.6
313.69 K, Crystal | 255.2
313.94 K, Crystal | 255
314.19 K, Crystal | 255.4
314.44 K, Crystal | 256.5
314.69 K, Crystal | 256.9
314.94 K, Crystal | 256.1
315.19 K, Crystal | 256
315.44 K, Crystal | 255.8
315.69 K, Crystal | 255.8
315.94 K, Crystal | 256
316.19 K, Crystal | 256.4
316.44 K, Crystal | 256.4
316.69 K, Crystal | 257.2
316.94 K, Crystal | 258
317.19 K, Crystal | 257.2
317.44 K, Crystal | 257.6
317.69 K, Crystal | 257.8
317.94 K, Crystal | 257.4
318.19 K, Crystal | 257
318.44 K, Crystal | 258.3
318.69 K, Crystal | 258.9
318.94 K, Crystal | 259.1
319.19 K, Crystal | 260.1
319.44 K, Crystal | 259.4
319.69 K, Crystal | 260.1
319.94 K, Crystal | 259.7
320.19 K, Crystal | 259.7
320.44 K, Crystal | 260.3
320.69 K, Crystal | 260.6
320.94 K, Crystal | 261.2
321.19 K, Crystal | 261.4
321.44 K, Crystal | 260.7
321.69 K, Crystal | 260.9
321.94 K, Crystal | 260.9
322.19 K, Crystal | 261.4
322.44 K, Crystal | 262.1
322.69 K, Crystal | 262.7
322.94 K, Crystal | 262.6
323.19 K, Crystal | 263.3
323.44 K, Crystal | 263.3
323.69 K, Crystal | 262.8
323.94 K, Crystal | 263
324.19 K, Crystal | 264.1
324.44 K, Crystal | 264.2
324.69 K, Crystal | 264.3
324.94 K, Crystal | 265.1
325.19 K, Crystal | 265.2
325.44 K, Crystal | 265.1
325.69 K, Crystal | 265.8
325.94 K, Crystal | 266.1
326.19 K, Crystal | 266.1
326.44 K, Crystal | 267.6
326.69 K, Crystal | 267.8
326.94 K, Crystal | 267.5
327.19 K, Crystal | 267.3
327.44 K, Crystal | 267.7
327.69 K, Crystal | 268.3
327.94 K, Crystal | 268.4
328.19 K, Crystal | 268.9
328.44 K, Crystal | 269.8
328.69 K, Crystal | 269.8
328.94 K, Crystal | 270.3
329.19 K, Crystal | 270.3
329.44 K, Crystal | 272
329.69 K, Crystal | 273.2
329.94 K, Crystal | 272.8
330.19 K, Crystal | 273.6
330.44 K, Crystal | 273.2
330.69 K, Crystal | 275.7
330.94 K, Crystal | 275.7
331.19 K, Crystal | 277.6
331.44 K, Crystal | 277.9
331.69 K, Crystal | 278.6
331.94 K, Crystal | 280.4
332.19 K, Crystal | 281.8
332.44 K, Crystal | 283.8
332.69 K, Crystal | 285.5
332.94 K, Crystal | 287.6
333.19 K, Crystal | 291.7
333.44 K, Crystal | 295.7
340.69 K, Liquid | 393.2
340.94 K, Liquid | 373.9
341.19 K, Liquid | 368.2
341.44 K, Liquid | 365.9
341.69 K, Liquid | 367
341.94 K, Liquid | 367.1
342.19 K, Liquid | 366.1
342.44 K, Liquid | 366.4
342.69 K, Liquid | 368.5
342.94 K, Liquid | 384.8
343.19 K, Liquid | 386
343.44 K, Liquid | 368.7
343.69 K, Liquid | 364.2
343.94 K, Liquid | 364.3
344.19 K, Liquid | 364.4
344.44 K, Liquid | 365
344.69 K, Liquid | 366.8
344.94 K, Liquid | 368.6
345.19 K, Liquid | 369.5
345.44 K, Liquid | 369.4
345.69 K, Liquid | 370.7
345.94 K, Liquid | 371
346.19 K, Liquid | 371
346.44 K, Liquid | 370.7
346.69 K, Liquid | 371
346.94 K, Liquid | 372.4
347.19 K, Liquid | 373.1
347.44 K, Liquid | 372.8
347.69 K, Liquid | 373.7
347.94 K, Liquid | 374
348.19 K, Liquid | 373.1
348.44 K, Liquid | 372.9
348.69 K, Liquid | 371.8
348.94 K, Liquid | 372
349.19 K, Liquid | 373
349.44 K, Liquid | 374.4
349.69 K, Liquid | 374.8
349.94 K, Liquid | 374
350.19 K, Liquid | 374.1
350.44 K, Liquid | 375.3
350.69 K, Liquid | 374.9
350.94 K, Liquid | 373.9
351.19 K, Liquid | 375
351.44 K, Liquid | 376.6
351.68 K, Liquid | 375.6
351.93 K, Liquid | 376.3

Conditions | mass density [kg/m3]
[2], 298 K, 101.33 kPa, X-ray diffraction | 1204.5

Conditions | Normal melting temperature [°C]
[2], DTA | 61.1

Conditions | Molar enthalpy of transition or fusion [kcal/mol] | molar enthalpy [kcal/mol]
[3] | 6.15 | –
[4] | – | 22.96
